# Experimental data from publication PMC10044725, “Antioxidant, Anti-Inflammatory and Anti-Diabetic Activities of Tectona grandis Methanolic Extracts, Fractions, and Isolated Compounds” (Antioxidants, 2023).
# Marks after values point to notes of the source that are not given here.
# Legend:
# [1] = tested on: IL-1β; experiment: IL-1β secretion in LPS-stimulated RAW 264.7 macrophages (ELISA); type: cell-based, mouse; conditions: 40 µM, LPS 1 µg/mL, 48 h, vs model control (p < 0.0001)
# Protocol: (§1) In order to increase cytokine production, macrophages were treated with LPS at a final concentration of 1 µg/mL, and then with T. grandis compounds at 40 µM. The compounds were solubilized in DMEM medium containing 0.1% DMSO. Dexamethasone was employed as a positive control (5 µg/mL). A centrifuge was used to separate the supernatant from the cells after 48 h of incubation, with three replicates per group. Quantification of TNF-α, IL-1β and IL-6 secretion was achieved by following the ELISA manufacturer's instructions. Then, absorbance was measured at 450 nm. Relative TNF-α, IL-1β and IL-6 expression was calculated according to Equation (4). Following the inflammatory factor test, cell viability was detected by CellTiter96® Aqueous One Solution Cell Proliferation Assay. Then, 20 μL/well CellTiter96® Aqueous One Solution Cell Growth Assay reagent was added to the plate and incubated at 37 °C for 8 h, absorbance was measured at […] and relative cell viability was calculated according to Equation (5). Relative content of inflammatory cytokines (%) = (A1/A2)/A3 × 100%(4) where A1 is the concentrations value of inflammatory cytokines of each group, A2 is the relative cell viability of each group (model group is 100) and A3 is the concentration of inflammatory cytokines of model group. Cell viability rate (%) = B1/B2 × 100%(5) where B1 is the OD value of each fraction group or positive control group and B2 is the OD value of the model control.
# [2] = ABTS radical cation scavenging assay (Trolox equivalent); conditions: compounds at 50 μM
# Protocol: The ABTS radical cation (ABTS•+) scavenging activities were conducted in accordance with the instructions for the ABTS kit. The total antioxidant activity values were estimated using the Trolox equivalent antioxidant capacity test. The detection concentration of methanolic extract and different fractions was 80 μg/mL, and the detection concentration of compounds (1–23) was 50 μM. […] Then, 190 μL of ABTS working reagent was mixed with 10 μL sample and incubated at room temperature for 5 min. The absorbance was then measured using a microplate reader at 734 nm, and the scavenging activity was calculated according to Equation (2). The blank control group used DMSO to replace the sample. […] The analysis was performed in triplicates, 1.424, 0.0012 was a constant.
# [3] = tested on: TNF-α; experiment: TNF-α secretion in LPS-stimulated RAW 264.7 macrophages (ELISA); type: cell-based, mouse; conditions: 40 µM, LPS 1 µg/mL, 48 h, vs model control (p < 0.01)
# Protocol: as §1
# [4] = tested on: α-glucosidase; experiment: α-Glucosidase inhibition assay (pNPG); type: biochemical; conditions: for Inhibitory Rate (%): at a concentration of 50 µM; for IC50: compounds
# Protocol: The inhibitory effect on α-glucosidase was measured according to the previous report method with slight modifications. The 20 mM sample dissolved in DMSO was diluted to 50 μM in PBS, 10 μL sample was mixed with 50 μL of 0.1 μ/mL α-glucosidase solution in 0.1 M phosphate buffer (pH 6.5) in a 96-well microplate and 10 μL PBS was used as a blank control. The mixture was incubated at 37 °C for 10 min before adding 40 µL of 5 mM 4-nitrophenyl-α-D-glucopyranoside to each well. After 30 min of incubation at 37 °C, the reaction was terminated by adding 50 μL of 0.1 M Na2CO3 to this mixture. The released 4-nitrophenol absorbance measurements were carried out using a microplate reader (SpectraMax190, USA) at 405 nm.
# [5] = DPPH free radical scavenging assay; conditions: isolated compounds; half scavenging concentration; read-out: DPPH Assay SC50
# Protocol: The DPPH free radical scavenging activities of T. grandis methanolic extract, different fractions and its compounds were conducted according to Dr. Yang et al.. […] The absorbance was measured using a microplate reader at 517 nm, and ascorbic acid was used as a positive control. The DPPH scavenging activity was calculated according to the following formula: Scavenging activity (%) = [1 − (A1 − A2)/(A3 − A4)] × 100% (1) where A1 is the OD value of the tested samples, A2 is the OD value of the sample control, A3 is the OD value of the negative control and A4 is the OD value of the blank control. The analysis was performed in triplicates and the results were described as SC50 values.
# [6] = tested on: IL-6; experiment: IL-6 secretion in LPS-stimulated RAW 264.7 macrophages (ELISA); type: cell-based, mouse; conditions: 40 µM, LPS 1 µg/mL, 48 h, vs model control (p < 0.05)
# Protocol: as §1
# [7] = Ferric reducing antioxidant power (FRAP) assay; conditions: compounds at 50 μM; Trolox equivalent
# Protocol: The FRAP assay was determined in accordance with the instructions for the FRAP kit. The total antioxidant activity values were estimated using the Trolox equivalent antioxidant capacity test. Initially, the detection concentration of methanolic extract and different fractions was 80 μg/mL, and the detection concentration of compounds (1–23) was 50 μM. Then, 190 μL of FRAP working reagent was mixed with 10 μL sample and incubated at room temperature for 20 min. The absorbance was then measured using a microplate reader at 593 nm, and the scavenging activity was calculated according to Equation (3). The blank control group used DMSO to replace the sample. […] The analysis was performed in triplicates, 0.8054, 0.0134 was a constant.
# [8] = tested on: pBR322 DNA; experiment: Prevention of AAPH-induced DNA oxidative damage; conditions: AAPH 20 mM; p < 0.0001 vs model
# Protocol: The effects of T. grandis methanolic extract, different fractions and its compounds 15, 19 and 23 on the prevention of DNA oxidative damage were carried out using the method of Han et al.. Initially, 8 μL pBR322 DNA (50 μg/mL) in PBS (0.1 M, pH 6.8) was mixed with different concentrations of T. grandis fractions and its compounds (12 μL) and incubated in water at 37 °C for 30 min. Then, 5 μL AAPH (20 mM) was added to the mixture and the reaction continued for 60 min. The control group used the same volume of PBS (0.1 M, pH 6.8) to replace AAPH. The pre-treated samples were mixed with 5 × DNA loading buffer, and the mixture (8 μL) was taken for 1.0% agarose gel electrophoresis for 25 min. After electrophoresis, the gels were stained with ethidium bromide for 20 min. Finally, images were taken using a DNA gel imaging system (ChampChemi 610, Beijing sage creation Co., Ltd. Beijing, China).
# [9] = tested on: BSA; experiment: Prevention of AAPH-induced protein oxidative damage; design: species or system Bovine; conditions: AAPH 160 mM; residual BSA
# Protocol: The protective activities of T. grandis methanolic extract, different fractions and its compounds 15 and 23 on protein oxidative damage were carried out using the method of Yang et al.. Initially, 20 μL BSA solutions (1 mg/mL) in PBS (0.1 M, pH 6.8) were mixed with different concentrations of fractions (40 μL) and compounds (40 μL) and incubated in water at 37 °C for 30 min. Then, 40 μL AAPH (160 mM) was added to the mixture and the reaction continued for 4 h. The control group used the same volume of PBS (0.1 M, pH 6.8) to replace AAPH. The pre-treated samples were added to 5 × SDS loading buffer and treated in water at 95 °C for 15 min. […] After electrophoresis, the gels were stained with Coomassie brilliant blue R-250 dye (0.25%, w/v), and then the gels were decolorized with the decolorizing solution. Finally, images were taken using the SDS-PAGE gel imaging system (ChampChemi 610, China) and the grayscale of Western blot was analyzed using Image J software.
Compound,effect on IL-1β inflammatory factor level [1],ABTS Assay [2],effect on TNF-α inflammatory factor level [3],Inhibitory Rate (%) [4],IC50 [4] [µM],EC50 [5] [µM],effect on IL-6 inflammatory factor expression [6],FRAP Assay [7],concentration at which a protective effect against DNA oxidative damage begins [8] [mM],concentration at which a protective effect against protein oxidative damage begins [9] [µM]
"O=c1cc(-c2ccc(O)c(O)c2)oc2cc(O[C@@H]3O[C@H](CO)[C@@H](O)[C@H](O)[C@H]3O)cc(O)c12 [Compound 1, luteolin-7-O-β-D-glucoside]",significant decrease,0.08 ± 0.01 ^d mmol Trolox/L,could decrease,10.62 ± 1.39 ^d %,> 50,8.09 ± 1.05,significant activities in reducing the expression,,,
"COC(=O)c1cc(O)c2c(c1)C(=O)c1ccccc1C2=O [Compound 13, 3-carbomethoxy-1-hydroxy-9,10-anthraquinone]",significant decrease,0.04 ± 0.00 ^d mmol Trolox/L,,13.84 ± 0.93 ^d %,> 50,3.56 ± 0.53,significant activities in reducing the expression,0.01± 0.01 ^c mmol Trolox/L,,
"C[C@@H]1O[C@@H](O[C@@H]2[C@@H](O)[C@H](OCCc3ccc(O)c(O)c3)O[C@H](CO)[C@H]2OC(=O)/C=C/c2ccc(O)c(O)c2)[C@H](O)[C@H](O)[C@H]1O [Compound 15, verbascoside]",,1.10 ± 0.77 ^a mmol Trolox/L,,18.30 ± 2.22 ^cd %,> 50,1.99 ± 0.34,,1.22 ± 0.11 ^a mmol Trolox/L,0.6,40
"CC1CCC2(C(=O)OC3OC(CO)C(O)C(O)C3OC3OC(CO)C(O)C(O)C3O)CCC3(C)C(=CCC4C5(C)CC(O)C(O)C(C)(CO)C5CCC43C)C2C1(C)O [Compound 18, 2β,3β,19α,23-tetrahydroxy-urs-12-en-28-O-[β-D-glucopyranosyl (1-2)-β-D-glucopyranosyl] ester]",significant decrease,,could decrease,22.91 ± 1.10 ^c %,> 50,8.45 ± 0.57,significant activities in reducing the expression,0.39 ± 0.00 ^b mmol Trolox/L,,
"COc1cc(C2Oc3c(OC)cc(CCCO)cc3C2CO)ccc1O (stereo not drawn) [Compound 19, rel-(2α,3β)-7-O-methylcedrusin]",,0.85 ± 0.03 ^a mmol Trolox/L,,57.40 ± 1.32 ^bc %,,6.17 ± 0.06,,0.25 ± 0.01 ^b mmol Trolox/L,5.0,
